Reference: PubChem BioAssay (NCI)
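Results reflect a 48-hour exposure of cells in 96-well plates to compound at five concentrations. TGI: total growth inhibition.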

Key:
Experiment in all cases: growth of human tumour cells (NCI), 48 h
[1] = system: 786-0 renal
[2] = system: A498 renal
[3] = system: A549 NSCLC
[4] = system: ACHN renal
[5] = system: BT-549 breast
[6] = system: CAKI-1 renal
[7] = system: CCRF-CEM leukemia
[8] = system: COLO 205 colon
[9] = system: DU-145 prostate
[10] = system: EKVX NSCLC
[11] = system: HCC-2998 colon
[12] = system: HCT-116 colon
[13] = system: HCT-15 colon
[14] = system: HL-60(TB) leukemia
[15] = system: HOP-62 NSCLC
[16] = system: HOP-92 NSCLC
[17] = system: HS 578T breast
[18] = system: HT29 colon
[19] = system: IGROV1 ovarian
[20] = system: K-562 leukemia
[21] = system: KM12 colon
[22] = system: LOX IMVI melanoma
[23] = system: M14 melanoma
[24] = system: MALME-3M melanoma
[25] = system: MCF7 breast
[26] = system: MDA-MB-231 breast
[27] = system: MDA-MB-435
[28] = system: MDA-N
[29] = system: MOLT-4 leukemia
[30] = system: NCI-H23 lung
[31] = system: NCI-H460 lung
[32] = system: NCI-H522 lung
[33] = system: NCI/ADR-RES ovarian
[34] = system: OVCAR-3 ovarian
[35] = system: OVCAR-4 ovarian
[36] = system: OVCAR-5 ovarian
[37] = system: OVCAR-8 ovarian
[38] = system: PC-3 prostate
[39] = system: RPMI-8226 leukemia
[40] = system: RXF 393 renal
[41] = system: SF-268 CNS
[42] = system: SF-295 CNS
[43] = system: SF-539 CNS
[44] = system: SK-MEL-2 melanoma
[45] = system: SK-MEL-28 melanoma
[46] = system: SK-MEL-5 melanoma
[47] = system: SN12C renal
[48] = system: SNB-19 CNS
[49] = system: SNB-75 CNS
[50] = system: SW-620 colon
[51] = system: T-47D breast
[52] = system: TK-10 renal
[53] = system: U251 CNS
[54] = system: UACC-257 melanoma
[55] = system: UACC-62 melanoma
[56] = system: UO-31 renal
[57] = system: SK-OV-3 ovarian
[58] = system: NCI-H226 lung

O=C(NCCCCCCNC(=O)c1cccc2ccccc12)Nc1cccc2ccccc12
TGI [1]: > 100 µM | TGI [2]: > 100 µM | TGI [3]: > 100 µM | TGI [4]: > 100 µM | TGI [5]: > 100 µM | TGI [6]: > 100 µM | TGI [7]: > 100 µM | TGI [8]: > 100 µM | TGI [9]: > 100 µM | TGI [10]: > 100 µM | TGI [11]: > 100 µM | TGI [12]: > 100 µM | TGI [13]: > 100 µM | TGI [14]: > 100 µM | TGI [15]: > 100 µM | TGI [16]: > 100 µM | TGI [17]: > 100 µM | TGI [18]: > 100 µM | TGI [19]: > 100 µM | TGI [20]: > 100 µM | TGI [21]: > 100 µM | TGI [22]: > 100 µM | TGI [23]: > 100 µM | TGI [24]: > 100 µM | TGI [25]: > 100 µM | TGI [26]: > 100 µM | TGI [27]: > 100 µM | TGI [28]: > 100 µM | TGI [29]: > 100 µM | TGI [30]: > 100 µM | TGI [31]: > 100 µM | TGI [32]: > 100 µM | TGI [33]: > 100 µM | TGI [34]: > 100 µM | TGI [35]: > 100 µM | TGI [36]: > 100 µM | TGI [37]: > 100 µM | TGI [38]: > 100 µM | TGI [39]: > 100 µM | TGI [40]: > 100 µM | TGI [41]: > 100 µM | TGI [42]: > 100 µM | TGI [43]: > 100 µM | TGI [44]: > 100 µM | TGI [45]: > 100 µM | TGI [46]: > 100 µM | TGI [47]: > 100 µM | TGI [48]: > 100 µM | TGI [49]: > 100 µM | TGI [50]: > 100 µM | TGI [51]: > 100 µM | TGI [52]: > 100 µM | TGI [53]: > 100 µM | TGI [54]: > 100 µM | TGI [55]: > 100 µM | TGI [56]: > 100 µM

CC(=O)Nc1cc(C(=O)Nc2cc(C(=O)N3CC(CCl)c4c3cc(N)c3ccccc43)nn2C)nn1C (stereo not drawn)
TGI [1]: 0.332 µM | TGI [2]: < 0.0197 µM | TGI [3]: 2.85 µM | TGI [4]: 0.0892 µM | TGI [5]: 0.883 µM | TGI [6]: 0.525 µM | TGI [7]: 0.0491 µM | TGI [9]: 0.018 µM | TGI [10]: 1.15 µM | TGI [11]: 0.491 µM | TGI [12]: 0.412 µM | TGI [13]: 3.22 µM | TGI [14]: < 0.0344 µM | TGI [15]: > 100 µM | TGI [16]: 0.1 µM | TGI [17]: 1.55 µM | TGI [18]: 1.21 µM | TGI [19]: 0.851 µM | TGI [20]: 0.823 µM | TGI [21]: 7.83 µM | TGI [22]: 1.07 µM | TGI [23]: 2.07 µM | TGI [24]: 0.267 µM | TGI [25]: > 66.5 µM | TGI [26]: 0.76 µM | TGI [27]: 0.281 µM | TGI [28]: 0.389 µM | TGI [29]: 0.0687 µM | TGI [30]: 0.0678 µM | TGI [31]: 0.13 µM | TGI [32]: 0.0181 µM | TGI [33]: 7.49 µM | TGI [34]: 2.61 µM | TGI [35]: 0.677 µM | TGI [36]: 17.3 µM | TGI [37]: 0.308 µM | TGI [39]: 1.41 µM | TGI [40]: 0.226 µM | TGI [41]: 0.128 µM | TGI [42]: 4.41 µM | TGI [43]: 0.0549 µM | TGI [44]: 0.427 µM | TGI [45]: 0.154 µM | TGI [46]: 1.23 µM | TGI [57]: 5.96 µM | TGI [47]: 0.0102 µM | TGI [48]: 3.14 µM | TGI [49]: 0.0775 µM | TGI [51]: 0.0931 µM | TGI [52]: > 100 µM | TGI [53]: 0.856 µM | TGI [54]: 2.09 µM | TGI [55]: 0.0631 µM | TGI [56]: 1.35 µM

CCSc1n/c(=C\c2ccco2)c2nnnn12
TGI [1]: > 100 µM | TGI [2]: > 100 µM | TGI [3]: > 100 µM | TGI [4]: > 100 µM | TGI [5]: > 100 µM | TGI [6]: > 100 µM | TGI [7]: > 100 µM | TGI [8]: > 100 µM | TGI [9]: > 100 µM | TGI [10]: > 100 µM | TGI [11]: > 100 µM | TGI [12]: > 100 µM | TGI [13]: > 100 µM | TGI [15]: > 100 µM | TGI [16]: > 100 µM | TGI [17]: > 100 µM | TGI [18]: > 100 µM | TGI [19]: > 100 µM | TGI [21]: > 100 µM | TGI [22]: > 100 µM | TGI [23]: > 100 µM | TGI [24]: > 100 µM | TGI [25]: > 100 µM | TGI [26]: > 100 µM | TGI [27]: > 100 µM | TGI [28]: > 100 µM | TGI [29]: > 100 µM | TGI [58]: > 100 µM | TGI [30]: > 100 µM | TGI [32]: > 100 µM | TGI [33]: > 100 µM | TGI [34]: > 100 µM | TGI [35]: > 100 µM | TGI [36]: > 100 µM | TGI [37]: > 100 µM | TGI [38]: > 100 µM | TGI [39]: > 100 µM | TGI [40]: > 100 µM | TGI [41]: > 100 µM | TGI [42]: > 100 µM | TGI [43]: > 100 µM | TGI [44]: > 100 µM | TGI [45]: > 100 µM | TGI [46]: > 100 µM | TGI [57]: > 100 µM | TGI [47]: > 100 µM | TGI [48]: > 100 µM | TGI [49]: > 100 µM | TGI [50]: > 100 µM | TGI [51]: > 100 µM | TGI [52]: > 100 µM | TGI [53]: > 100 µM | TGI [54]: > 100 µM | TGI [55]: > 100 µM | TGI [56]: > 100 µM

Cc1cc(N(CCC#N)CCC#N)ccc1/C(N=Nc1ccc([N+](=O)[O-])cc1)=N\NC(=O)c1cc(Cl)ccc1C(=O)c1ccccc1
TGI [1]: 52.7 µM | TGI [3]: > 100 µM | TGI [4]: > 100 µM | TGI [5]: > 100 µM | TGI [6]: 62.5 µM | TGI [7]: 12.5 µM | TGI [8]: 40.6 µM | TGI [9]: 56.8 µM | TGI [10]: 28.3 µM | TGI [11]: 30.3 µM | TGI [12]: 23.6 µM | TGI [13]: 37.2 µM | TGI [15]: > 100 µM | TGI [17]: 68 µM | TGI [18]: 27.4 µM | TGI [19]: 17.9 µM | TGI [20]: > 100 µM | TGI [21]: 47.8 µM | TGI [23]: > 100 µM | TGI [24]: 31.1 µM | TGI [25]: 26.1 µM | TGI [26]: 91 µM | TGI [27]: > 100 µM | TGI [28]: > 100 µM | TGI [29]: 38.8 µM | TGI [58]: 34.1 µM | TGI [30]: 38.6 µM | TGI [31]: 43.2 µM | TGI [32]: 6.17 µM | TGI [33]: 50.9 µM | TGI [34]: > 100 µM | TGI [35]: 95 µM | TGI [36]: > 100 µM | TGI [37]: 26.1 µM | TGI [38]: 83.3 µM | TGI [39]: 38.4 µM | TGI [40]: 57.9 µM | TGI [41]: 42.3 µM | TGI [42]: > 100 µM | TGI [44]: 57.8 µM | TGI [45]: > 100 µM | TGI [46]: 27.3 µM | TGI [57]: > 100 µM | TGI [47]: > 100 µM | TGI [48]: > 100 µM | TGI [49]: > 100 µM | TGI [50]: 82.2 µM | TGI [51]: 50.3 µM | TGI [52]: > 100 µM | TGI [53]: > 100 µM | TGI [54]: > 100 µM | TGI [55]: 36.9 µM | TGI [56]: 60.5 µM
